# According to patent US8507538B2, “Selective heterocyclic sphingosine 1 phosphate receptor modulators” (Receptos, Inc., priority 2009, dated 2013):
# Where a name gives a salt, the structure may show the parent alone.
# Molecular target: S1P1/EDG1 (Homo sapiens, UniProt P21453)
# Assay: S1P1 CRE-bla CHOK1 reporter assay (inhibition of Forskolin induced cAMP)
# Type: cell-based
# Settings: agonist activity range, Table 2; read-out: S1P1 ACTIVITY
# Description: A mammalian expression plasmid containing S1P1/EDG1 cloned into pcDNA3.1 was purchased from Missouri S&T cDNA Resource Centre. The nucleotide and amino acid sequence of human S1P1/EDG1 are published in Hla and Maciag (J Biol Chem, 265(1990), 9308-9313). S1P1/pcDNA3.1 was transfected into the CRE-bla CHO K1 (Invitrogen) cell line, and stable single cell clones were selected using standard techniques. Expression of functional SIP1/EDG1 receptor was confirmed by cell surface FACS with a S1P1 antibody (R&D Systems, clone 218713) and S1P-mediated inhibition of Forskolin induced cAMP.
# Cells were seeded into 384-well black wall/clear bottom plates at 10^4 cells/well/19.5 μl assay media (DMEM-phenol free, 0.5% charcoal/dextran stripped serum, 2 mM glutamine, 0.1 mM NEAA, 1 mM Na-Pyruvate, 25 mM Hepes) and incubated for 18 hrs at 37° C. in 5% CO2. Dose response curves (10-point) were generated in 10 mM Hepes, 0.1% Pluronic F127, in the presence of Forskolin. Cells were treated with 0.5 μl compound in the presence of 2 μM Forskolin for 4 hrs at 37° C. The FRET-based β-lactamase fluorescent substrate (LiveBLAzer™ FRET B/G Loading Kit CC4-AM; Invitrogen) was prepared according to manufacturer's directions, and incubated with cells for 2 hrs at room temperature. Plates were read at Ex:410/Em:458 and Ex:410/Em:522, and the response ratio determined. Data was analyzed by non-linear regression to determine the EC50 for inhibition of Forskolin induced cAMP.
# Chain of S1P1/EDG1 (P21453 whole entry): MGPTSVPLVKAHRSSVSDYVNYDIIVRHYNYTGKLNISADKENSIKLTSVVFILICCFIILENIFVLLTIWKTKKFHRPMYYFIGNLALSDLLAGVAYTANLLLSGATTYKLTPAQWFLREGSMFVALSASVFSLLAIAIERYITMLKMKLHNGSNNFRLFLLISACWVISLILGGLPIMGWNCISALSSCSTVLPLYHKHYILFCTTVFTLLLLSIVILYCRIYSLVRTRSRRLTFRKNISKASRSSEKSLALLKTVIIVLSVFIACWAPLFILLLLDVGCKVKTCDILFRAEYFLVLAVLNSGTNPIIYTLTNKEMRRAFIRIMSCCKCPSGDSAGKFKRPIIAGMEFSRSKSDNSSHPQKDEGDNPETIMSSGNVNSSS
row,SMILES,EC50 [nM]
1,"CC(C)Oc1ccc(-c2nnc(-c3cccc4c3CC[C@@H]4N)s2)cc1C#N [Compound 4, (S)-5-(5-(1-amino-2,3-dihydro-1H-inden-4-yl)-1,3,4-thiadiazol-2-yl)-2-isopropoxybenzonitrile hydrochloride]",0.5 to 5
2,CCOc1ccc(-c2nnc(-c3cccc4c3CC[C@@H]4N)s2)cc1OCC [Compound 6],0.5 to 5
3,"CC(C)Oc1ccc(-c2nnc(-c3cccc4c3CC[C@@H]4NC(=O)CO)s2)cc1C#N [Compound 7, (S)-N-(4-(5-(3-cyano-4-isopropoxyphenyl)-1,3,4-thiadiazol-2-yl)-2,3-dihydro-1H-inden-1-yl)-2-hydroxyacetamide]",< 0.05
4,"CC(C)Oc1ccc(-c2nnc(-c3cccc4c3CC[C@H]4NC(=O)CO)s2)cc1C#N [Compound 8, (R)-N-(4-(5-(3-cyano-4-isopropoxyphenyl)-1,3,4-thiadiazol-2-yl)-2,3-dihydro-1H-inden-1-yl)-2-hydroxyacetamide]",0.05 to 0.5
5,CC(C)Oc1ccc(-c2nnc(-c3cccc4c3CC[C@@H]4NC(=O)CN)s2)cc1C#N [Compound 9],0.05 to 0.5
6,COCC(=O)N[C@@H]1CCc2c(-c3nnc(-c4ccc(OC(C)C)c(C#N)c4)s3)cccc21 [Compound 11],0.05 to 0.5
7,COCC(=O)N[C@H]1CCc2c(-c3nnc(-c4ccc(OC(C)C)c(C#N)c4)s3)cccc21 [Compound 12],0.5 to 5
8,CC(C)Oc1ccc(-c2nnc(-c3cccc4c3CC[C@@H]4NC(=O)CN(C)C)s2)cc1C#N [Compound 13],0.5 to 5
9,"CC(=O)N[C@H]1CCc2c(-c3nnc(-c4ccc(OC(C)C)c(C#N)c4)s3)cccc21 [Compound 14, (S)-N-(4-(5-(3-cyano-4-isopropoxyphenyl)-1,3,4-thiadiazol-2-yl)-2,3-dihydro-1H-inden-1-yl)acetamide]",0.05 to 0.5
10,"CC(=O)N[C@@H]1CCc2c(-c3nnc(-c4ccc(OC(C)C)c(C#N)c4)s3)cccc21 [Compound 15, (R)-N-(4-(5-(3-cyano-4-isopropoxyphenyl)-1,3,4-thiadiazol-2-yl)-2,3-dihydro-1H-inden-1-yl)acetamide]",0.05 to 0.5
11,"COC(=O)N[C@H]1CCc2c(-c3nnc(-c4ccc(OC(C)C)c(C#N)c4)s3)cccc21 [Compound 16, (S)-methyl(4-(5-(3-cyano-4-isopropoxyphenyl)-1,3,4-thiadiazol-2-yl)-2,3-dihydro-1H-inden-1-yl)carbamate]",0.5 to 5
12,"CC(C)Oc1ccc(-c2nnc(-c3cccc4c3CC[C@@H]4NCCO)s2)cc1C#N [Compound 18, (S)-5-(5-(1-((2-hydroxyethyl)amino)-2,3 dihydro-1H-inden-4-yl)-1,3,4-thiadiazol-2-yl)-2-isopropoxy-benzonitrile]",0.5 to 5
13,COCCN[C@H]1CCc2c(-c3nnc(-c4ccc(OC(C)C)c(C#N)c4)s3)cccc21 [Compound 19],0.5 to 5
14,"CC(C)Oc1ccc(-c2nnc(-c3cccc4c3CC[C@@H]4NCC(=O)N(C)C)s2)cc1C#N [Compound 21, (S)-2-((4-(5-(3-cyano-4-isopropoxyphenyl)-1,3,4-thiadiazol-2-yl)-2,3-dihydro-1H-inden-1-yl)amino)-N,N-dimethylacetamide hydrochloride]",0.5 to 5
15,CC(C)Oc1ccc(-c2nnc(-c3cccc4c3CC[C@@H]4NCC(=O)N3CCCC3)s2)cc1C#N [Compound 23],0.5 to 5
16,CC(C)Oc1ccc(-c2nnc(-c3cccc4c3CC[C@@H]4NCC(=O)N3CCOCC3)s2)cc1C#N [Compound 24],0.5 to 5
17,CC(C)Oc1ccc(-c2nnc(-c3cccc4c3CC[C@@H]4NCC(=O)N3CCOCC3)s2)cc1C#N [Compound 25],0.05 to 0.5
18,"CC(C)Oc1ccc(-c2nnc(-c3cccc4c3CC[C@@H]4NCC(=O)O)s2)cc1C#N [Compound 26, (S)-2-((4-(5-(3-cyano-4-isopropoxyphenyl)-1,3,4-thiadiazol-2-yl)-2,3-dihydro-1H-inden-1-yl)amino)acetic acid]",0.05 to 0.5
19,"CC(C)Oc1ccc(-c2nnc(-c3cccc4c3CC[C@@H]4NCc3ncc[nH]3)s2)cc1C#N [Compound 28, (S)-5-(5-(1-(((1H-imidazol-2-yl)methyl)amino)-2,3-dihydro-1H-inden-4-yl)-1,3,4-thiadiazol-2-yl)-2-isopropoxybenzonitrile]",0.05 to 0.5
20,COCCN(CCOC)[C@H]1CCc2c(-c3nnc(-c4ccc(OC(C)C)c(C#N)c4)s3)cccc21 [Compound 30],0.5 to 5
21,"CC(C)Oc1ccc(-c2nnc(-c3cccc4c3CC[C@@H]4NCCS(C)(=O)=O)s2)cc1C#N [Compound 31, (S)-2-isopropoxy-5-(5-(1-((2-(methylsulfonyl)ethyl)amino)-2,3-dihydro-1H-inden-4-yl)-1,3,4-thiadiazol-2-yl)benzonitrile]",0.05 to 0.5
22,"CC(C)Oc1ccc(-c2nnc(-c3cccc4c3CC[C@@H]4NS(C)(=O)=O)s2)cc1C#N [Compound 33, (S)-N-(4-(5-(3-cyano-4-isopropoxyphenyl)-1,3,4-thiadiazol-2-yl)-2,3-dihydro-1H-inden-1-yl)methanesulfonamide]",0.05 to 0.5
23,COCCS(=O)(=O)N[C@H]1CCc2c(-c3nnc(-c4ccc(OC(C)C)c(C#N)c4)s3)cccc21 [Compound 35],0.05 to 0.5

row,SMILES,EC50 [nM]
1,CC(C)Oc1ccc(-c2nnc(-c3cccc4c3CC[C@@H]4NCC(=O)N3CCCC3)s2)cc1C#N [Compound 39],0.05 to 0.5
2,"CC(C)Oc1ccc(-c2nnc(-c3cccc4c3CC[C@@H]4NS(=O)(=O)CC(=O)O)s2)cc1C#N [Compound 40, (S)-2-(N-(4-(5-(3-cyano-4-isopropoxyphenyl)-1,3,4-thiadiazol-2-yl)-2,3-dihydro-1H-inden-1-yl)sulfamoyl)acetic acid]",0.05 to 0.5
3,"CC(C)Oc1ccc(-c2nnc(-c3cccc4c3CC[C@@H]4NS(=O)(=O)CC(=O)N(C)C)s2)cc1C#N [Compound 42, (S)-2-(N-(4-(5-(3-cyano-4-isopropoxyphenyl)-1,3,4-thiadiazol-2-yl)-2,3-dihydro-1H-inden-1-yl)sulfamoyl)-N,N-dimethylacetamide]",0.05 to 0.5
4,CC(C)Oc1ccc(-c2nnc(-c3cccc4c3CC[C@@H]4NS(=O)(=O)CC(N)=O)s2)cc1C#N [Compound 44],< 0.05
5,"CC(C)Oc1ccc(-c2nnc(-c3cccc4c3CC[C@@H]4NS(=O)(=O)CCO)s2)cc1C#N [Compound 45, (S)-N-(4-(5-(3-cyano-4-isopropoxyphenyl)-1,3,4-thiadiazol-2-yl)-2,3-dihydro-1H-inden-1-yl)-2-hydroxyethanesulfonamide]",0.05 to 0.5
6,CC(C)Oc1ccc(-c2nnc(-c3cccc4c3CC[C@@H]4NC(=O)N3CC(C(=O)O)C3)s2)cc1C#N [Compound 50],0.05 to 0.5
7,CC(C)Oc1ccc(-c2nnc(-c3cccc4c3CC[C@H]4NC(=O)N3CCCC3)s2)cc1C#N [Compound 52],0.05 to 0.5
8,CC(C)Oc1ccc(-c2nnc(-c3cccc4c3CC[C@@H]4NC(=O)N3CCCC3)s2)cc1C#N [Compound 53],0.5 to 5
9,CC(C)Oc1ccc(-c2nnc(-c3cccc4c3CC[C@@H]4NC(=O)N3CC[C@H](O)C3)s2)cc1C#N [Compound 54],0.05 to 0.5
10,CC(C)Oc1ccc(-c2nnc(-c3cccc4c3CC[C@@H]4NC(=O)N3CC[C@H](O)C3)s2)cc1C#N [Compound 55],0.5 to 5
11,CC(C)Oc1ccc(-c2nnc(-c3cccc4c3CC[C@@H]4NC(=O)N3CCC[C@H](O)C3)s2)cc1C#N [Compound 60],0.5 to 5
12,CC(C)Oc1ccc(-c2nnc(-c3cccc4c3CC[C@@H]4NC(=O)N3CCC[C@H](O)C3)s2)cc1C#N [Compound 61],0.05 to 0.5
13,CC(C)Oc1ccc(-c2nnc(-c3cccc4c3CC[C@@H]4NC(=O)N3CCC(O)CC3)s2)cc1C#N [Compound 62],0.5 to 5
14,CC(C)Oc1ccc(-c2nnc(-c3cccc4c3CC[C@@H]4NC(=O)N3CC(O)C3)s2)cc1C#N [Compound 64],0.5 to 5
15,CC(C)Oc1ccc(-c2nnc(-c3cccc4c3CC[C@@H]4NC(=O)N3CC(O)C3)s2)cc1C#N [Compound 65],0.05 to 0.5
16,CC(C)Oc1ccc(-c2nnc(-c3cccc4c3CC[C@H]4NC(=O)N(C)C)s2)cc1C#N [Compound 66],0.05 to 0.5
17,CC(C)Oc1ccc(-c2nnc(-c3cccc4c3CC[C@@H]4NC(=O)N(C)C)s2)cc1C#N [Compound 67],0.5 to 5
18,COC(=O)N[C@H]1CCc2c(-c3nnc(-c4ccc(OC(C)C)c(C#N)c4)s3)cccc21 [Compound 68],0.05 to 0.5
19,"CC(C)Oc1ccc(-c2ncc(-c3cccc4c3CC[C@@H]4O)s2)cc1C#N [Compound 70, (S)-5-(5-(1-hydroxy-2,3-dihydro-1H-inden-4-yl)thiazol-2-yl)-2-isopropoxybenzonitrile]",0.5 to 5
20,"CC(C)Oc1ccc(-c2ncc(-c3cccc4c3CC[C@@H]4NC(=O)CO)s2)cc1C#N [Compound 73, (S)-N-(4-(2-(3-cyano-4-isopropoxyphenyl)thiazol-5-yl)-2,3-dihydro-1H-inden-1-yl)-2-hydroxyacetamide]",0.05 to 0.5
21,COCC(=O)N[C@H]1CCc2c(-c3cnc(-c4ccc(OC(C)C)c(C#N)c4)s3)cccc21 [Compound 75],0.05 to 0.5
22,"COCC(=O)N[C@H]1CCc2c(-c3cnc(-c4ccc(OC(C)C)c(C#N)c4)s3)cccc21 [Compound 76, (S)-N-(4-(2-(3-cyano-4-isopropoxyphenyl)thiazol-5-yl)-2,3-dihydro-1H-inden-1-yl)-2-methoxyacetamide]",0.5 to 5
